For series [1], the target named is T1, OAT1 (Homo sapiens, UniProt Q4U2R8).
T1 construct: expressed in transfected cells; host or cells: MDCK II cells
T1 sequence (Q4U2R8 1-563): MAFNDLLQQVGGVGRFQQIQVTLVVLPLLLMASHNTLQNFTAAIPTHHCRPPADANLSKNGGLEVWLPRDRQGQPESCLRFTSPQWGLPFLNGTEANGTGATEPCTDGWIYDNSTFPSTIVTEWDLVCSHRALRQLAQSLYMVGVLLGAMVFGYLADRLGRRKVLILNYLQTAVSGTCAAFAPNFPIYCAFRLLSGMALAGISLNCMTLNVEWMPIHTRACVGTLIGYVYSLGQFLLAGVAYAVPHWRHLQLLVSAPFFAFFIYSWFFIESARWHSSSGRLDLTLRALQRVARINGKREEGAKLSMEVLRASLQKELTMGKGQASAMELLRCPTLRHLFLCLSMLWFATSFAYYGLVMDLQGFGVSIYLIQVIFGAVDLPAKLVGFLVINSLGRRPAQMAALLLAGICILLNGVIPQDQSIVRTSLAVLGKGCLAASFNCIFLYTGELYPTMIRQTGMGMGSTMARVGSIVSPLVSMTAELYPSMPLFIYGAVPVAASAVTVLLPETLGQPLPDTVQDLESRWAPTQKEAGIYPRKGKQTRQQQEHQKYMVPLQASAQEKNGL
Nature of the series: Uptake into MDCK II cells stably expressing OAT1. The series is classed as cell-based. The note with it: pooled EHBR plasma, pH 5.5, 37 °C, 15 min. As to the method: (§1) Kidneys were collected from normal SD rats, and the kidney slices were incubated with the plasma samples of EHBRs at 37 °C or 4 °C for 2 h (A–C). MDCK II cells stably expressing OAT1 or OAT3 were incubated with the plasma samples of EHBRs at 37 °C for 15 min (D–F). […] Data are expressed as mean ± S.E. (n = 3 for (C, D), and (E); n = 6 for (A, B), and F). *P < 0.05 and **P < 0.01 vs 4 °C group by Student’s t-test for (A–C), and vs mock cells by Dunnett’s multiple t-test for (D–F).
(§2) Uptake studies using rat kidney slices and cells stably expressing OAT1 and OAT3 were conducted with the same protocol as in our previous study.

Series [2] deals with T2, OAT3 (Homo sapiens, UniProt Q8TCC7).
T2 construct: expressed in transfected cells; host or cells: MDCK II cells
T2 sequence (Q8TCC7 1-542): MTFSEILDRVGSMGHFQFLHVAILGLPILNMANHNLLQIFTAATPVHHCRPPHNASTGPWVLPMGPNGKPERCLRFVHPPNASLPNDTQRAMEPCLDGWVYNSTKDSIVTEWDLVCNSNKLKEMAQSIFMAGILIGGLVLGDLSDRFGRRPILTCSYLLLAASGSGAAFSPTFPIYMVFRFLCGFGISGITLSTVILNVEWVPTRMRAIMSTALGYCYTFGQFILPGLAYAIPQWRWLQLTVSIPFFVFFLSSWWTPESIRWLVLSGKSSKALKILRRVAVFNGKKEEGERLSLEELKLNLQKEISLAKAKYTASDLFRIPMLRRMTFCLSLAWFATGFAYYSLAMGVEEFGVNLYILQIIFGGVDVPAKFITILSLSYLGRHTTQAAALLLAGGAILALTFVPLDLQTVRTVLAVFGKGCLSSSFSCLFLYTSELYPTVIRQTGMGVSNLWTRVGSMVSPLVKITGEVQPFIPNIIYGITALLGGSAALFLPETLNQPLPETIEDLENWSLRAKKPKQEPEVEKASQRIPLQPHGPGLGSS
Description: Uptake into MDCK II cells stably expressing OAT3. To be noted: pooled EHBR plasma, pH 5.5, 37 °C, 15 min. The series is classed as cell-based. As to the method:
as §1, §2

The target of series [3] is T3, rat type 2 11β-hydroxysteroid dehydrogenase (11β-HSD2) (Rattus norvegicus, UniProt P50233).
T3 construct: from tissue; host or cells: rat kidney microsome fraction
T3 sequence (P50233 1-400): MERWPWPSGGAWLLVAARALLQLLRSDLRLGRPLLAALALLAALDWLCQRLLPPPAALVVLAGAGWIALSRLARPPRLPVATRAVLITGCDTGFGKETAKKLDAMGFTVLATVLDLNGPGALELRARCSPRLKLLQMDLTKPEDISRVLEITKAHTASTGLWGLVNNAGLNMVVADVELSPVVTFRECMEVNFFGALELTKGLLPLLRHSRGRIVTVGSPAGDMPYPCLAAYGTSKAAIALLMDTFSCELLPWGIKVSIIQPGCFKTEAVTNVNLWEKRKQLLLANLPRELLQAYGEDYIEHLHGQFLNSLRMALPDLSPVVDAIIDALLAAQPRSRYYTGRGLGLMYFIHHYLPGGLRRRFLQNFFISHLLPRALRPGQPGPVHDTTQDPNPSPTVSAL
Nature of the series: Inhibition of 11β-HSD2 in rat kidney microsome fraction. To be noted: for IC50: 37 °C, 30 min. The series is classed as biochemical. As to the method: Compounds 2 and 3 inhibited 11β-HSD2 in a rat kidney microsome fraction in a concentrations-dependent manner (Fig. 2).
Figure 2 Inhibitory effects of 2 and 3 on 11β-HSD2 using rat kidney microsome. [^3H] cortisone and each compound were mixed with the rat kidney microsome fraction, and incubated at 37 °C for 30 min. Then, the amount of [^3H] cortisol was measured. Data are expressed as mean ± S.E. (n = 4) of the percentage relative to the amount of [^3H] cortisol in the mixture without samples. **P < 0.01 and ***P < 0.001 compared with the groups without the samples by Dunnett’s multiple t-test for compounds 2 and 3, and by Student’s t-test for GA.
Assays were conducted as described by Diederich et al.[20] with slight modifications as described in our previous report.

In series [4] the target is T1, OAT1. To be noted: cited from earlier work.
Series [5] addresses T3, rat type 2 11β-hydroxysteroid dehydrogenase (11β-HSD2). To be noted: rat kidney microsome fraction; cited from earlier work.
Details of series [6]: method as in PMID 17331546. To be noted: guinea pigs; cited from earlier work.
Series [7] deals with T2, OAT3. To be noted: cited from earlier work.

Read-outs that look alike come from different tables or passages of the source.

Usually IC50 stands for the point on the concentration scale where inhibition reaches its midpoint.

As for `CC1(C)[C@@H](OS(=O)(=O)O)CC[C@]2(C)[C@H]3C(=O)C=C4[C@@H]5C[C@@](C)(C(=O)O)CC[C@]5(C)CC[C@@]4(C)[C@]3(C)CC[C@@H]12` [compound 3, 18β-glycyrrhetyl-3-O-sulfate], in series [1], the “uptake into cells expressing OAT1 compared with mock cells” value is given as “significantly higher”. Also, the “uptake into cells expressing OAT3 compared with mock cells” value in series [2] was “significantly higher”. Further, in series [3], the “inhibitory titer on 11β-HSD2 compared with GA” value was “slightly higher than that of GA” and the IC50 is 0.1 µM.
In the case of `CC1(C)[C@@H](O[C@@H]2O[C@H](C(=O)O)[C@@H](O)[C@H](O)[C@H]2O)CC[C@]2(C)[C@H]3C(=O)C=C4[C@@H]5C[C@@](C)(C(=O)O)CC[C@]5(C)CC[C@@]4(C)[C@]3(C)CC[C@@H]12` [3MGA, 3-monoglucuronyl glycyrrhetinic acid, reference compound], the “substrate of OAT1” value in series [4] is “substrate”. For the same compound, the IC50 in series [5] is 0.25 µM. In series [6], the “hypokalemia after i.v. injection” value is “caused hypokalemia”. For the same compound, the “substrate of OAT3” value in series [7] was “substrate”.
Turning to `CC1(C)[C@@H](OS(=O)(=O)O)CC[C@]2(C)[C@H]3C(=O)C=C4[C@@H]5C[C@@](C)(C(=O)O[C@@H]6O[C@H](C(=O)O)[C@@H](O)[C@H](O)[C@H]6O)C[C@H](O)[C@]5(C)CC[C@@]4(C)[C@]3(C)CC[C@@H]12` [compound 1, 22α-hydroxy-18β-glycyrrhetyl-3-O-sulfate-30-glucuronide], the “substrate of OAT1” value in series [4] is on record as “substrate”. Also, in series [5], the IC50 is 2 µM. Also, the “substrate of OAT3” value in series [7] is given as “substrate”.
In the case of `CC1(C)[C@@H](OS(=O)(=O)O)CC[C@]2(C)[C@H]3C(=O)C=C4[C@@H]5C[C@@](C)(C(=O)O)C[C@H](O)[C@]5(C)CC[C@@]4(C)[C@]3(C)CC[C@@H]12` [compound 2, 22α-hydroxy-18β-glycyrrhetyl-3-O-sulfate], the “uptake into cells expressing OAT1 compared with mock cells” value in series [1] is “significantly higher”. For the same compound, the “uptake into cells expressing OAT3 compared with mock cells” value in series [2] is “significantly higher”. Also, in series [3], the “inhibitory titer on 11β-HSD2 compared with GA” value was “slightly higher than that of GA” and half-maximal inhibition (IC50) required 0.11 µM.

Values taken from PMC6367500, “18β-glycyrrhetyl-3-O-sulfate would be a causative agent of licorice-induced pseudoaldosteronism” (Scientific Reports, 2019).
